# Experiments:
# [1] = mouse, in vivo
# [2] = test system: CAPANI cells (which are deficient in brca2); conditions: cited from earlier work
# MCF-7 brca1+/+cells = conditions: 10 μM, exposure for 10 consecutive days; cited from earlier work
compound,measurement,setting,value
poly-[2-(2-ethoxyethoxyethyl)guanidinium hydrochloride],"tolerated dose, daily intravenous dosing regime",[1],2.5 mg/kg body weight
same,"tolerated dose, weekly basis",[1]; iv,5 mg/kg body weight
Cc1nc2c(O)cccc2c(=O)[nH]1 [NU1025],inhibition of CAPANI cells,[2],not inhibited
CN(C)Cc1ccc(-c2nc3cccc4c3n2CCNC4=O)cc1 [AG14361],MCF-7 brca1+/+ cells eradicated,MCF-7 brca1+/+cells,50%
O=C1CCC(=O)N1c1cc(Cc2n[nH]c(=O)c3ccccc23)ccc1F [KU0058684],inhibition of CAPANI cells,[2],inhibited
